In patent publication US20240360178A1, “MACROCYCLIC IMMUNOMODULATORS” (Bristol-Myers Squibb Company, priority 2021, published 2024):
Positions of bridges follow the written chain, without caps; N, C: chain ends. Non-standard residues stand in square brackets, D forms with d. Residues, ends and D or L forms follow the SMILES beside them. *: point of attachment. Ala(indol-4-yl) = N[C@@H](Cc1cccc2[nH]ccc12)C(=O)O; Bip(2'-Me) = Cc1ccccc1-c1ccc(C[C@H](N)C(=O)O)cc1; Ala(4-thiazolyl) = N[C@@H](Cc1cscn1)C(=O)O; Bip = N[C@@H](Cc1ccc(-c2ccccc2)cc1)C(=O)O; Phe(4-CN) = N#Cc1ccc(C[C@H](N)C(=O)O)cc1; d(cisHyp) = O=C(O)[C@H]1C[C@@H](O)CN1; NMeF = CN[C@@H](Cc1ccccc1)C(=O)O; Carboxymethyl = O=C(O)C*; NMeA = CN[C@@H](C)C(=O)O; Sar = CNCC(=O)O

Target: T1, human PD-1 (Jurkat-PD-1 cells) / PE-labeled human PD-L1-Ig (Homo sapiens, UniProt Q15116)
T1 construct: expressed in transfected cells; host or cells: Jurkat cell line over-expressing human PD-1
T1 sequence (Q15116 25-288): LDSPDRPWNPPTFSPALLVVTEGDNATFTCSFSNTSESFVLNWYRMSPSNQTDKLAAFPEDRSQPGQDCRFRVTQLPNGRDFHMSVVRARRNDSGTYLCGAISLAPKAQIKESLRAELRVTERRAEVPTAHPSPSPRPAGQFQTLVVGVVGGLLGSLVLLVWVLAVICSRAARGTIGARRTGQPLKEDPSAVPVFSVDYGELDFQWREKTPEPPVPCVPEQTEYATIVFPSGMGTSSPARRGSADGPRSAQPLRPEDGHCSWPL
Assay: Jurkat-PD-1 Cell Binding High-Content Screening Assay (CBA); Jurkat hPD1-PDL1 assay
Settings: Jurkat cell line over-expressing human PD-1; PE-labeled PD-L1-Ig 20 nM final; compound incubated 2 hours at 37° C.; read-out: Jurkat HPD1-PDL1 IC50
Outline: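 Jurkat-hPD-1 cells; cpd 2 h, 37° C; then PE-PD-L1-Ig 20 nM final in DMEM/10% FCS; high-content imaging read-out.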

Row | IC50 [nM] | Compound
1 | 490 | CC(C)C[C@@H]1NC(=O)[C@H](Cc2c[nH]c3ccccc23)NC(=O)[C@H](CC(=O)O)NC(=O)[C@H](Cc2ccc(O)cc2)NC(=O)[C@H](Cc2ccc(C#N)cc2)NC(=O)CSC[C@@H](C(=O)NCC(N)=O)NC(=O)[C@H](CO)NC(=O)[C@H](C(C)C)NC(=O)[C@H](CC(C)C)NC(=O)[C@H](CC(N)=O)NC(=O)CN(C)C(=O)[C@H](C)N(C)C(=O)[C@H](C(C)C)NC(=O)[C@H](Cc2ccc(-c3ccccc3)cc2)NC1=O [Example 1128] ({CH2CO}-[Phe(4-CN)]YDWL[Bip]V[NMeA][Sar]NLVSCG-NH2; thioether N-14)
2 | 500 | CC(C)C[C@@H]1NC(=O)[C@H](C)NC(=O)CN(C)C(=O)[C@H](C)N(C)C(=O)[C@H](C(C)C)NC(=O)[C@H](Cc2ccc(-c3ccccc3)cc2)NC(=O)[C@H](CC(C)C)NC(=O)[C@H](Cc2c[nH]c3ccccc23)NC(=O)[C@H](CC(=O)O)NC(=O)[C@H](Cc2ccc(O)cc2)NC(=O)[C@H](Cc2ccccc2)NC(=O)CSC[C@@H](C(=O)NCC(N)=O)NC(=O)[C@H](CO)NC(=O)[C@H](C(C)C)NC1=O [Example 1130] ({CH2CO}-FYDWL[Bip]V[NMeA][Sar]ALVSCG-NH2; thioether N-14)
3 | 530 | CC(C)C[C@@H]1NC(=O)[C@H](Cc2c[nH]c3ccccc23)NC(=O)[C@H](CC(=O)O)NC(=O)[C@H](Cc2ccc(O)cc2)NC(=O)[C@H](Cc2cscn2)NC(=O)CSC[C@@H](C(=O)NCC(N)=O)NC(=O)[C@H](CO)NC(=O)[C@H](C(C)C)NC(=O)[C@H](CC(C)C)NC(=O)[C@H](CC(N)=O)NC(=O)CN(C)C(=O)[C@H](C)N(C)C(=O)[C@H](C(C)C)NC(=O)[C@H](Cc2ccc(-c3ccccc3)cc2)NC1=O [Example 1132] ({CH2CO}-[Ala(4-thiazolyl)]YDWL[Bip]V[NMeA][Sar]NLVSCG-NH2; thioether N-14)
4 | 540 | CC[C@H](C)[C@@H]1NC(=O)[C@H](Cc2ccc(-c3ccccc3)cc2)NC(=O)[C@H](CC(C)C)NC(=O)[C@H](Cc2c[nH]c3ccccc23)NC(=O)[C@H](CC(=O)O)NC(=O)[C@H](Cc2ccc(O)cc2)NC(=O)[C@H](Cc2ccccc2)NC(=O)CSC[C@@H](C(=O)NCC(N)=O)NC(=O)[C@H](CO)NC(=O)[C@H](C(C)C)NC(=O)[C@H](CC(C)C)NC(=O)[C@H](CC(N)=O)NC(=O)CN(C)C(=O)[C@H](C)N(C)C1=O [Example 1133] ({CH2CO}-FYDWL[Bip]I[NMeA][Sar]NLVSCG-NH2; thioether N-14)
5 | 550 | CC(C)C[C@@H]1NC(=O)[C@H](Cc2c[nH]c3ccccc23)NC(=O)[C@H](CC(=O)O)NC(=O)[C@H](Cc2ccc(O)cc2)NC(=O)[C@H](Cc2c[nH]c3ccccc23)NC(=O)CSC[C@@H](C(=O)NCC(N)=O)NC(=O)[C@H](CO)NC(=O)[C@H](C(C)C)NC(=O)[C@H](CC(C)C)NC(=O)[C@H](CC(N)=O)NC(=O)CN(C)C(=O)[C@H](C)N(C)C(=O)[C@H](C(C)C)NC(=O)[C@H](Cc2ccc(-c3ccccc3)cc2)NC1=O [Example 1135] ({CH2CO}-WYDWL[Bip]V[NMeA][Sar]NLVSCG-NH2; thioether N-14)
6 | 560 | CC(C)C[C@@H]1NC(=O)[C@H](Cc2c[nH]c3ccccc23)NC(=O)[C@H](CC(=O)O)NC(=O)[C@H](Cc2ccc(O)cc2)NC(=O)[C@H](Cc2ccccc2)NC(=O)CSC[C@@H](C(=O)N[C@@H](C)C(N)=O)NC(=O)[C@H](CCC(N)=O)NC(=O)[C@H](C(C)C)NC(=O)[C@H](CC(C)C)NC(=O)[C@H](CC(N)=O)NC(=O)CN(C)C(=O)[C@H](C)N(C)C(=O)[C@H](C(C)C)NC(=O)[C@H](Cc2ccc(-c3ccccc3)cc2)NC1=O [Example 1136] ({CH2CO}-FYDWL[Bip]V[NMeA][Sar]NLVQCA-NH2; thioether N-14)
7 | 560 | CC(C)C[C@@H]1NC(=O)[C@H](Cc2c[nH]c3ccccc23)NC(=O)[C@H](CC(=O)O)NC(=O)[C@H](Cc2ccc(O)cc2)NC(=O)[C@H](Cc2ccc(OCC(=O)O)cc2)NC(=O)CSC[C@@H](C(=O)NCC(N)=O)NC(=O)[C@H](CO)NC(=O)[C@H](C(C)C)NC(=O)[C@H](CC(C)C)NC(=O)[C@H](CC(N)=O)NC(=O)CN(C)C(=O)[C@H](C)N(C)C(=O)[C@H](C(C)C)NC(=O)[C@H](Cc2ccc(-c3ccccc3)cc2)NC1=O [Example 1137] ({CH2CO}-Y(Carboxymethyl)YDWL[Bip]V[NMeA][Sar]NLVSCG-NH2; thioether N-14)
8 | 570 | COc1ccc(C[C@@H]2NC(=O)CSC[C@@H](C(=O)NCC(N)=O)NC(=O)[C@H](CO)NC(=O)[C@H](C(C)C)NC(=O)[C@H](CC(C)C)NC(=O)[C@H](CC(N)=O)NC(=O)CN(C)C(=O)[C@H](C)N(C)C(=O)[C@H](C(C)C)NC(=O)[C@H](Cc3ccc(-c4ccccc4)cc3)NC(=O)[C@H](CC(C)C)NC(=O)[C@H](Cc3c[nH]c4ccccc34)NC(=O)[C@H](CC(=O)O)NC(=O)[C@H](Cc3ccc(O)cc3)NC2=O)cc1 [Example 1138] ({CH2CO}-Y(Me)YDWL[Bip]V[NMeA][Sar]NLVSCG-NH2; thioether N-14)
9 | 590 | COc1ccc(C[C@@H]2NC(=O)[C@H](Cc3ccccc3)NC(=O)CSC[C@@H](C(=O)N[C@@H](C)C(N)=O)NC(=O)[C@H](CO)NC(=O)[C@H](C(C)C)NC(=O)[C@H](CC(C)C)NC(=O)[C@H](CC(N)=O)NC(=O)CN(C)C(=O)[C@H](C)N(C)C(=O)[C@H](C(C)C)NC(=O)[C@H](Cc3ccc(-c4ccccc4)cc3)NC(=O)[C@H](CC(C)C)NC(=O)[C@H](Cc3c[nH]c4ccccc34)NC(=O)[C@H](CC(=O)O)NC2=O)cc1 [Example 1139] ({CH2CO}-FY(Me)DWL[Bip]V[NMeA][Sar]NLVSCA-NH2; thioether N-14)

The next lines start with the compound.

Row | Compound | IC50 [nM]
10 | COC[C@@H]1NC(=O)[C@H](C(C)C)NC(=O)[C@H](CC(C)C)NC(=O)[C@H](CC(N)=O)NC(=O)CN(C)C(=O)[C@H](C)N(C)C(=O)[C@H](C(C)C)NC(=O)[C@H](Cc2ccc(-c3ccccc3)cc2)NC(=O)[C@H](CC(C)C)NC(=O)[C@H](Cc2c[nH]c3ccccc23)NC(=O)[C@H](CC(=O)O)NC(=O)[C@H](Cc2ccc(O)cc2)NC(=O)[C@H](Cc2ccccc2)NC(=O)CSC[C@@H](C(=O)N[C@@H](C)C(N)=O)NC1=O [Example 1123] ({CH2CO}-FYDWL[Bip]V[NMeA][Sar]NLVS(Me)CA-NH2; thioether N-14) | 440
11 | CC(C)C[C@@H]1NC(=O)[C@H](Cc2cccc3[nH]ccc23)NC(=O)[C@H](CC(=O)O)NC(=O)[C@H](Cc2ccc(O)cc2)NC(=O)[C@H](Cc2ccccc2)NC(=O)CSC[C@@H](C(=O)N[C@@H](C)C(N)=O)NC(=O)[C@H](CO)NC(=O)[C@H](C(C)C)NC(=O)[C@H](CC(C)C)NC(=O)[C@H](CC(N)=O)NC(=O)CN(C)C(=O)[C@H](C)N(C)C(=O)[C@H](C(C)C)NC(=O)[C@H](Cc2ccc(-c3ccccc3)cc2)NC1=O [Example 1124] ({CH2CO}-FYD[Ala(indol-4-yl)]L[Bip]V[NMeA][Sar]NLVSCA-NH2; thioether N-14) | 450
12 | Cc1ccccc1-c1ccc(C[C@@H]2NC(=O)[C@H](CC(C)C)NC(=O)[C@H](Cc3c[nH]c4ccccc34)NC(=O)[C@H](CC(=O)O)NC(=O)[C@H](Cc3ccc(O)cc3)NC(=O)[C@H](Cc3ccccc3)NC(=O)CSC[C@@H](C(=O)N[C@@H](C)C(N)=O)NC(=O)[C@H](CO)NC(=O)[C@H](C(C)C)NC(=O)[C@H](CC(C)C)NC(=O)[C@H](CC(N)=O)NC(=O)CN(C)C(=O)[C@H](C)N(C)C(=O)[C@H](C(C)C)NC2=O)cc1 [Example 1125] ({CH2CO}-FYDWL[Bip(2'-Me)]V[NMeA][Sar]NLVSCA-NH2; thioether N-14) | 470
13 | CC(C)C[C@@H]1NC(=O)[C@H](Cc2c[nH]c3ccccc23)NC(=O)[C@H](CC(=O)O)NC(=O)[C@H](Cc2ccc(O)cc2)NC(=O)[C@H](Cc2ccccc2)NC(=O)CSC[C@@H](C(=O)N[C@@H](C)C(N)=O)NC(=O)[C@H](CO)NC(=O)[C@H](C(C)C)NC(=O)[C@H](CC(C)C)NC(=O)[C@H](CC(N)=O)NC(=O)[C@H]2C[C@@H](O)CN2C(=O)[C@H](C)N(C)C(=O)[C@H](C(C)C)NC(=O)[C@H](Cc2ccc(-c3ccccc3)cc2)NC1=O [Example 1126] ({CH2CO}-FYDWL[Bip]V[NMeA][d(cisHyp)]NLVSCA-NH2; thioether N-14) | 480
14 | CC(C)C[C@@H]1NC(=O)[C@H](Cc2c[nH]c3ccccc23)NC(=O)[C@H](CC(=O)O)NC(=O)[C@H](Cc2ccc(O)cc2)NC(=O)[C@H](Cc2ccccc2)NC(=O)CSC[C@@H](C(=O)N[C@@H](C)C(N)=O)NC(=O)[C@H](Cc2cnc[nH]2)NC(=O)[C@H](C(C)C)NC(=O)[C@H](CC(C)C)NC(=O)[C@H](CC(N)=O)NC(=O)CN(C)C(=O)[C@H](C)N(C)C(=O)[C@H](C(C)C)NC(=O)[C@H](Cc2ccc(-c3ccccc3)cc2)NC1=O [Example 1127] ({CH2CO}-FYDWL[Bip]V[NMeA][Sar]NLVHCA-NH2; thioether N-14) | 480
15 | CC(C)C[C@@H]1NC(=O)[C@H](CCCNC(=N)N)NC(=O)[C@H](Cc2ccccc2)N(C)C(=O)[C@H](C)N(C)C(=O)[C@H](CCCNC(=N)N)NC(=O)[C@H](Cc2ccc(-c3ccccc3)cc2)NC(=O)[C@H](C(C)C)NC(=O)[C@H](Cc2c[nH]c3ccccc23)NC(=O)[C@H](CC(=O)O)NC(=O)[C@H](Cc2ccc(O)cc2)NC(=O)[C@H](Cc2ccccc2)NC(=O)CSC[C@@H](C(=O)NCC(N)=O)NC(=O)[C@H]([C@@H](C)O)NC(=O)[C@H](C(C)C)NC1=O [Example 1129] ({CH2CO}-FYDWV[Bip]R[NMeA][NMeF]RLVTCG-NH2; thioether N-14) | 500
16 | CC(C)C[C@@H]1NC(=O)[C@H](Cc2c[nH]c3ccccc23)NC(=O)[C@H](CC(=O)O)NC(=O)[C@H](Cc2ccc(O)cc2)NC(=O)[C@H](Cc2ccccc2)NC(=O)CSC[C@@H](C(=O)N[C@@H](C)C(N)=O)NC(=O)[C@H](CO)NC(=O)[C@H](C(C)C)NC(=O)[C@H](CC(C)C)NC(=O)[C@H](CCCCN)NC(=O)CN(C)C(=O)[C@H](C)N(C)C(=O)[C@H](CCC(=O)O)NC(=O)[C@H](Cc2ccc(-c3ccccc3)cc2)NC1=O [Example 1134] ({CH2CO}-FYDWL[Bip]E[NMeA][Sar]KLVSCA-NH2; thioether N-14) | 540
